Measurements: US5998423A, “Methods for modulating melanin production” (Therasys, Inc., priority 1997, dated 1999)

Tests used:
[1] = system: Mouse, Cloudman S91 Melanoma Cell line; assay: Stimulation of melanin synthesis in cell culture (melanin content, OD 475 nm); assay type: cell-based; conditions: result in words; incubation 5-7 days at 37° C.; values only in FIG. 6
Excerpt: A Mouse, Cloudman S91 Melanoma Cell line (Clone M-3, ATCC CCL-53.1) was used. The cells were flown as monolayers. These cells multiply 7-8 fold in 7 days and are know to produce melanin in over 50% of the cells up to at least 33 passages. Horse serum, fetal Bovine serum, Penicillin-streptomycin and F-10 nutrient mixture were all obtained from Life Technologies (GIBCO, Grand Island, N.Y.). N^6 -Cyclopentyl-9-methyladenine (N-154) and C-102 (CPT) were obtained from RBI (Natick, Mass.). 1-Oleoyl-2-acetyl-rac-glycerol, activated charcoal, Triton X-100, phenyl methyl sulfonyl fluoride, theophylline, synthetic melanin and L-tyrosine-[Ring-3,5] were all obtained from Sigma Chemical Co. (St. Louis, Mo.). The culture medium used was Ham's F-10. The composition of the medium was as follows: Ham's F-10 Nutrient Mixture (82.5%), horse serum (15.0%), fetal bovine serum (2.5%), penecillin-streptomycin mixture (1.0%).
Cells were incubated with the indicated reagents (see FIG. 6) at 37° C. under 5% CO2 atmosphere for 5-7 days. At the time of harvest, exhausted medium was removed from flasks/wells and cells were treated with 1-5 mL of 0.25% trypsin for 2-3 minutes. […]
The pellet (from above extraction) was dissolved in 0.25 mL of 0.5 N NaOH and the optical density was measured at 475 nm. The melanin content was determined from a standard curve obtained by using a synthetic melanin.

melanoma cell lines = conditions: cited from earlier work
adenylate cyclase = conditions: through activation of adenylate cyclase, thereby increasing cAMP levels; cited from earlier work

For `Cn1cnc2c(NC3CCCC3)ncnc21` [N^6 -Cyclopentyl-9-methyladenine], the “stimulation of melanin synthesis” value [1] was “stimulation of melanin synthesis”.

In the case of `Cn1c(=O)c2[nH]cnc2n(C)c1=O` [Theophylline, theophylline], the stimulation of melanogenesis (melanoma cell lines) is given as “potent stimulator of melanogenesis”.

In the case of α-MSH, the melanin production (adenylate cyclase) is listed as “increase melanin production”.
